The source of these data is patent US8481084B2, “Cholesterol-interacting layered phyllosilicates and methods of reducing hypercholesteremia in a mammal” (Amcol International Corporation, priority 2007, dated 2013).

Assay [1] concerns New Zealand Male Rabbits fed a high cholesterol diet. The assay can be described thus: Plasma lipids in rabbits fed a high cholesterol diet, severe dyslipidemic model (Example 11). The class given is in vivo, New Zealand white rabbits. The method, then: Male New Zealand white rabbits ([…]; Control group [n=5], Simvastatin Group [n=4], Compound A Group [n=5], Compound B Group [n=5] and Compound C Group [n=5]) were housed in individual cages in a room with constant humidity and temperature (22° C.) under a 12 h light-dark cycle, and fed a standard diet for 7 days. After 7 days, animals were fed 10 g of a regular chow diet plus 100 g of the same diet supplemented with 0.5% (w/v) cholesterol and 14.0% (w/v) coconut oil for an additional 28 days. The final diet administered to these rabbits (following dilution of 100 g of high fat/cholesterol diet with 10 g of regular chow) consistent of 0.45% (w/v) cholesterol and 12.75% (w/v) coconut oil. […] The total plasma cholesterol, ApoB, HDL and triglyceride concentrations of the subjects prior to drug treatment is set forth in FIGS. 1-4, respectively.
For an additional 21 days (day 35 to day 56 of the study), a group of control animals (n=5) were maintained on the same diet (10 g regular chow diet plus 100 g of cholesterol/coconut diet) and four groups of animals were fed 100 g of cholesterol/coconut diet plus 10 g regular chow diet containing either simvastatin (3 mg/kg/day; n=4), Compound A (hydrogen protonated layered phyllosilicate material (prepared as described above in Example 2); 20 mg/kg/day; n=5), Compound B (layered phyllosilicate material with surface modified with lecithin prepared as described above in Example 5); 20 mg/kg/day; n=5) and Compound C (layered phyllosilicate material with surface acid treatment prepared as described above in Example 6) 20 mg/kg/day; n=5). Whole blood was collected (3 ml) prior to and 7, 14, and 21 days after initiation of treatment for plasma lipid determinations.
Plasma total cholesterol and triglyceride concentrations were directly quantified using enzymatic kits (Sigma Aldrich). HDL-cholesterol concentrations were determined using the dextran sulfate-Mg^2+ precipitation method as developed by Wamick et al. (9). The Friedewald equation for determining LDL cholesterol could not be used in this rabbit fed model (10). However, measurement of apoB cholesterol (which takes into account LDL-cholesterol) concentrations were determined by subtracting HDL-cholesterol concentrations from total cholesterol concentrations.
Statistical analysis: Results are expressed as mean±standard error of the mean (SEM). Statistical analyses were conducted using an analysis of variance (PCANOVA; Human Dynamic Systems) and assuming unequal variance (Newman Keuls post-hoc test; assuming unequal variance). Variables compared among treatment groups include, weight gain, total plasma cholesterol, total plasma triglyceride, HDL-cholesterol and ApoB-cholesterol. A p-value of less than 0.05 indicates a significant difference between treated and untreated groups.

The subject of assay [2] is intestinal cholesterol absorption. Kind of assay: Absorption of orally given [3H]cholesterol in rats, plasma AUC (Example 12). The class given is in vivo, male Sprague Dawley rats. Here is the method: The following Example was performed to determine the bioavailability and pharmacokinetics of dietary cholesterol following oral administration of different layered phyllosilicate material compounds to male Sprague Dawley rats, using the methodology reported in Wassan et al. J. Pharmaceut. Sci., 90:23-28, 2001.
Preparation of cholesterol formulation: Commercially available 20% Intralipid® was diluted by external phase of emulsion to reach a triglyceride concentration of 10% v/v. Cold cholesterole as dissolved in 100% ethanol (1 mg/75 μl) and the solution was slowly added to the 10% Intralipid® with magnetic stirring. [^3H]cholesterol toluene solution (25 μl/ml) was then slowly added and then vortexed for 30 seconds. The formulation was then mixed by magnetic stirring for an additional 30 minutes until ready for administration. The final formulation contained 90% of the 10% Intralipid®, 7.5% ethanol and 2.5% toluene. The final concentrations of cold and radiolabeled cholesterol were 1 mg/ml and 25 μCi/ml, respectively.
Preparation of Ezetimibe Formulation: Commercially Available Ezetimibe Tablets were crushed and suspended in double distilled water to reach final ezetimibe concentration of 5 mg/ml. The suspension was briefly vortexed and then stirred using a magnetic stirrer for about 1 hour until ready for administration.
Preparation of the Stigmastanol Formulation: Stigmastanol was Pre-Wetted by Tween 80 (1% v/v final concentration) and suspended in 2% sodium carboxymethyl cellulose solution in double distilled water. The suspension was briefly vortexed for about 3 minutes, sonicated (Bransonic®3510) for 2 hours at ambient temperature and then stirred with a magnetic stirrer for 30 minutes until ready for administration. The final concentration of stigmastanol in the suspension was 25 mg/ml.
Experimental design: All rats used in this study were cared for in accordance with the principles promulgated by the Canadian Council on Animal Care and the University of British Columbia. Adult male Sprague Dawley rats (weighing approximately 350 g) were obtained from UBC animal care unit (Vancouver, B. C., Canada). The rats were maintained under a 12 hour light ([…])/dark cycle and supplied with a standard laboratory diet (PMI Feeds, Richmond, Va., USA) and water ad libitum. The right external jugular vein was cannulated with a two-part catheter consisting of PE 50 connected to a short length of 0.02 inch silastic tubing inserted 3.2 cm past the clavicle (Hauss et al., Contemp Top Lab Anim Sci., 37(3):56-58 1998). The jugular cannula was tunneled beneath the skin and exteriorized through a small stab wound in the back of the neck. The animals were outfitted with jacket-and-tether assemblies and placed in metabolism cages for the duration of the study.
Following completion of the surgical procedures, the animals were fasted overnight and permitted to recover for 16-20 hours. Free access to a drinking solution consisting of 5% glucose in lactated Ringer's solution was permitted postoperatively and throughout the study. The following treatment protocol was used. Following an overnight fast (12-16 hours), rats were divided into one of the following fourteen treatment groups and received a single-dose oral gavage (1 g Intralipid emulsion) at 0700 h of either:
All of test Compounds A, G, H, I, J, K, L or M were given as a separate slurry to the animal by oral gavage.
Following oral administration, serial blood samples were collected into EDTA-coated tubes predose and at 10 minutes predosing and at 0.5, 1, 2, 4, 6, 10, 24 28, 32 and 48 hours postdosing. The withdrawn blood was replaced by equal volume of normal saline to prevent hypovolemia. Rats remained fasted throughout the duration of blood sampling (12 h predosing+24 h postdosing=[…] total fasting). Plasma was obtained by centrifugation and analyzed for [^3H] cholesterol by radioactivity. […]

As to `CCC(C)(C)C(=O)O[C@H]1C[C@@H](C)C=C2C=C[C@H](C)[C@H](CC[C@@H]3C[C@@H](O)CC(=O)O3)[C@H]21` [Simvastatin, simvastatin], the “ApoB-Cholesterol, % C (percentage change from Day 35 to Day 56)” value in assay [1] (SVT 3 mg/kg/day, A, B, C 20 mg/kg/day, control +63%) is recorded as −53%. In addition, the “Total Cholesterol, % C (percentage change from Day 35 to Day 56)” value in assay [1] (SVT 3 mg/kg/day, A, B, C 20 mg/kg/day, control +68%) is recorded as −52%. Also, in assay [1] (beginning of drug treatment (day 35), mean ± SEM, SVT 3 mg/kg/day, A, B, C 20 mg/kg/day), the “Total Cholesterol, Day 35” value is listed as 1167 ± 276 mg/dL. The “ApoB-Cholesterol, Day 35” value in assay [1] (beginning of drug treatment (day 35), total minus HDL cholesterol, mean ± SEM) is recorded as 1092 ± 265 mg/dL. Moreover, the “Total Cholesterol, Day 56” value in assay [1] (end of drug treatment (day 56), mean ± SEM, SVT 3 mg/kg/day, A, B, C 20 mg/kg/day) came out at 556 ± 122 mg/dL. Moreover, in assay [1] (end of drug treatment (day 56), total minus HDL cholesterol, mean ± SEM), the “ApoB-Cholesterol, Day 56” value stood at 517 ± 121 mg/dL.
Turning to `O=C1[C@H](CC[C@H](O)c2ccc(F)cc2)[C@@H](c2ccc(O)cc2)N1c1ccc(F)cc1` [ezetimibe], the “% of control group (AUC0-48 h)” value in assay [2] (10 mg/kg) is 8.6%. Moreover, in assay [2] (10 mg/kg ezetimibe), the AUC0-48h (mean±SEM) stood at 6940 ± 462 ng·h/mL. The “AUC0-48 h of cholesterol (mean ± SEM)” value in assay [2] (10 mg/kg oral with [3H]cholesterol, control 80861 ± 5911) was 6937 ± 462 ng·h/mL. Also, the “inhibition of intestinal cholesterol absorption, in words” value in assay [2] (ezetimibe 10 mg/kg versus Compound A or stigmastanol 50 mg/kg) is recorded as “higher inhibition”.
Take `CC[C@H](CC[C@@H](C)[C@H]1CC[C@H]2[C@@H]3CC[C@H]4C[C@@H](O)CC[C@]4(C)[C@H]3CC[C@]12C)C(C)C` [stigmastanol]: the “% of control group (AUC0-48 h)” value in assay [2] (50 mg/kg) turned out to be 68.9%. The “AUC0-48 h of cholesterol (mean ± SEM)” value in assay [2] (50 mg/kg oral with [3H]cholesterol) was determined as 55742 ± 3764 ng·h/mL.
